Results: patent publication US8247211B2, “Glycopeptide antibiotics” (American Cyanamid Company, priority 2001, dated 2012)

How the values were obtained:
Experiment in all cases: In vitro antibacterial evaluation: minimum inhibitory concentration (MIC), broth dilution method
Assay type in all cases: cell-based
Details in all cases: 18 hours at 35° C.
[1] = system: Staphylococcus sp.
How it was run: (§1)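 MIC by broth dilution in Mueller-Hinton II medium following NCCLS M7-A2. Inoculum was 5×10^5 CFU/mL and antibiotic was tested over 64-0.06 μg/mL. Gram-positive panel included clinical isolates resistant to methicillin, penicillin and/or vancomycin.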

[2] = system: Enterococcus sp.
How it was run: as §1

[3] = system: Streptococcus sp.
How it was run: as §1

[4] = system: Escherichia coli
How it was run: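 Inoculum: 5×10^5 CFU/mL. Range: 64-0.06 μg/mL. Medium: Muller-Hinton II […]; NCCLS M7-A2 broth dilution. Endpoint: lowest concentration inhibiting growth. Strains include methicillin-, penicillin- and/or vancomycin-resistant clinical isolates.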

[5] = Coagulase Negative Staphylococcus (GC 4547)
[6] = Coagulase Negative Staphylococcus (GC 4548)
[7] = Coagulase Negative Staphylococcus (GC 4549)
[8] = Coagulase Negative Staphylococcus (GC 4551)
[9] = Coagulase Negative Staphylococcus (GC 6257)
[10] = Staphylococcus aureus (ATCC 29213)
[11] = Staphylococcus aureus (GC 1131)
[12] = Staphylococcus aureus (GC 3051)
[13] = Staphylococcus aureus (GC 3053)
[14] = Staphylococcus aureus (GC 4541)
[15] = Staphylococcus aureus (GC 4542)
[16] = Staphylococcus aureus (GC 4544)
[17] = Staphylococcus aureus (GC 4545)
[18] = Staphylococcus aureus-SMITH (GC 4543)
[19] = Staphylococcus haemolyticus (GC 4546)
[20] = broth dilution, strain ATCC 29213
[21] = Enterococcus faecalis (ATCC 29212)
[22] = Enterococcus faecalis (GC 2242)
[23] = Enterococcus faecalis (GC 2691)
[24] = Enterococcus faecalis (GC 3059)
[25] = Enterococcus faecalis (GC 4552)
[26] = Enterococcus faecalis (GC 4553)
[27] = Enterococcus faecalis (GC 4554)
[28] = Enterococcus faecalis (GC 6189)
[29] = broth dilution, strain ATCC 29212
[30] = Streptococcus agalactiae (GC 4564)
[31] = Streptococcus pneumoniae (GC 4565)
[32] = Streptococcus pyogenes (GC 4563)

α-O-[(N-Methyl-2-methylpropylamino)carbonyl]-cyclo[glycyl-β-methylphenylalanyl-O-(4-O-hexopyranosylhexopyranosyl)tyrosyl-3-(2-iminoimidazolidin-4-yl)seryl-3-(3-hexopyranosyl-2-iminoimidazolidin-4-yl)serylseryl] [Example 255]
32 µg/mL: MIC Coagulase Negative Staphylococcus (GC 4547) [1, 5] | MIC Coagulase Negative Staphylococcus (GC 4549) [1, 7] | MIC Coagulase Negative Staphylococcus (GC 6257) [1, 9] | MIC Staphylococcus haemolyticus (GC 4546) [1, 19] | MIC Staphylococcus haemolyticus (GC 4546) ([1]; broth dilution, strain GC 4546) | MIC Coagulase Negative Staphylococcus (GC 4547) ([1]; broth dilution, strain GC 4547) | MIC Coagulase Negative Staphylococcus (GC 4549) ([1]; broth dilution, strain GC 4549) | MIC Coagulase Negative Staphylococcus (GC 6257) ([1]; broth dilution, strain GC 6257) | MIC Streptococcus agalactiae (GC 4564) [3, 30] | MIC Streptococcus agalactiae (GC 4564) ([3]; broth dilution, strain GC 4564)
64 µg/mL: MIC Coagulase Negative Staphylococcus (GC 4548) [1, 6] | MIC Coagulase Negative Staphylococcus (GC 4551) [1, 8] | MIC Coagulase Negative Staphylococcus (GC 4548) ([1]; broth dilution, strain GC 4548) | MIC Coagulase Negative Staphylococcus (GC 4551) ([1]; broth dilution, strain GC 4551)
>64 µg/mL: MIC Enterococcus faecium (GC 2243) ([2]; Enterococcus faecium (GC 2243)) | MIC Enterococcus faecium (GC 4556) ([2]; Enterococcus faecium (GC 4556)) | MIC Enterococcus faecium (GC 2243) ([2]; broth dilution, strain GC 2243) | MIC Enterococcus faecium (GC 4556) ([2]; broth dilution, strain GC 4556)
0.5 µg/mL: MIC Staphylococcus aureus (GC 3051) [1, 12] | MIC Staphylococcus aureus (GC 3053) [1, 13] | MIC Staphylococcus aureus (GC 4541) [1, 14] | MIC Staphylococcus aureus (GC 4542) [1, 15] | MIC Staphylococcus aureus (GC 4544) [1, 16] | MIC Staphylococcus aureus (GC 4545) [1, 17] | MIC Staphylococcus aureus-SMITH (GC 4543) [1, 18] | MIC Staphylococcus aureus (GC 3051) ([1]; broth dilution, strain GC 3051) | MIC Staphylococcus aureus (GC 3053) ([1]; broth dilution, strain GC 3053) | MIC Staphylococcus aureus (GC 4541) ([1]; broth dilution, strain GC 4541) | MIC Staphylococcus aureus (GC 4542) ([1]; broth dilution, strain GC 4542) | MIC Staphylococcus aureus-SMITH (GC 4543) ([1]; broth dilution, strain GC 4543) | MIC Staphylococcus aureus (GC 4544) ([1]; broth dilution, strain GC 4544) | MIC Staphylococcus aureus (GC 4545) ([1]; broth dilution, strain GC 4545) | MIC Escherichia coli (GC 4560) [4]
>0.5 µg/mL: MIC Staphylococcus aureus (ATCC 29213) [1, 10] | MIC Staphylococcus aureus (GC 1131) [1, 11] | MIC Staphylococcus aureus (ATCC 29213) [1, 20] | MIC Staphylococcus aureus (GC 1131) ([1]; broth dilution, strain GC 1131) | MIC Enterococcus avium (GC 4558) ([2]; Enterococcus avium (GC 4558)) | MIC Enterococcus faecalis (ATCC 29212) [2, 21] | MIC Enterococcus faecalis (GC 2242) [2, 22] | MIC Enterococcus faecalis (GC 2691) [2, 23] | MIC Enterococcus faecalis (GC 3059) [2, 24] | MIC Enterococcus faecalis (GC 4552) [2, 25] | MIC Enterococcus faecalis (GC 4553) [2, 26] | MIC Enterococcus faecalis (GC 4554) [2, 27] | MIC Enterococcus faecalis (GC 6189) [2, 28] | MIC Enterococcus faecalis (ATCC 29212) [2, 29] | MIC Enterococcus faecalis (GC 2242) ([2]; broth dilution, strain GC 2242) | MIC Enterococcus faecalis (GC 2691) ([2]; broth dilution, strain GC 2691) | MIC Enterococcus faecalis (GC 3059) ([2]; broth dilution, strain GC 3059) | MIC Enterococcus faecalis (GC 4552) ([2]; broth dilution, strain GC 4552) | MIC Enterococcus faecalis (GC 4553) ([2]; broth dilution, strain GC 4553) | MIC Enterococcus faecalis (GC 4554) ([2]; broth dilution, strain GC 4554) | MIC Enterococcus avium (GC 4558) ([2]; broth dilution, strain GC 4558) | MIC Enterococcus faecalis (GC 6189) ([2]; broth dilution, strain GC 6189) | MIC Escherichia coli (ATCC 25922) [4] | MIC Escherichia coli (GC 4559) [4]
16 µg/mL: MIC Enterococcus faecium (GC 4557) ([2]; Enterococcus faecium (GC 4557)) | MIC Enterococcus faecium (GC 4557) ([2]; broth dilution, strain GC 4557) | MIC Streptococcus pneumoniae (GC 4565) [3, 31] | MIC Streptococcus pyogenes (GC 4563) [3, 32] | MIC Streptococcus pyogenes (GC 4563) ([3]; broth dilution, strain GC 4563) | MIC Streptococcus pneumoniae (GC 4565) ([3]; broth dilution, strain GC 4565)

β-O-[(Heptylamino)carbonyl]-cyclo[glycyl-β-methylphenylalanyl-O-(4-O-hexopyranosylhexopyranosyl)tyrosyl-3-(2-iminoimidazolidin-4-yl)seryl-3-(3-hexopyranosyl-2-iminoimidazolidin-4-yl)serylseryl] [Example 253a]
0.25 µg/mL: MIC Streptococcus pneumoniae (GC 1894) ([3]; Streptococcus pneumoniae (GC 1894)) | MIC Streptococcus pneumoniae (GC 1894) ([3]; broth dilution, strain GC 1894)
4 µg/mL: MIC Coagulase Negative Staphylococcus (GC 4547) [1, 5] | MIC Coagulase Negative Staphylococcus (GC 4548) [1, 6] | MIC Staphylococcus aureus (ATCC 29213) [1, 10] | MIC Staphylococcus aureus (GC 1131) [1, 11] | MIC Staphylococcus aureus (GC 3053) [1, 13] | MIC Staphylococcus aureus (GC 4541) [1, 14] | MIC Staphylococcus aureus (GC 4542) [1, 15] | MIC Staphylococcus aureus (GC 4544) [1, 16] | MIC Staphylococcus haemolyticus (GC 4546) [1, 19] | MIC Staphylococcus aureus (ATCC 29213) [1, 20] | MIC Staphylococcus aureus (GC 1131) ([1]; broth dilution, strain GC 1131) | MIC Staphylococcus aureus (GC 3053) ([1]; broth dilution, strain GC 3053) | MIC Staphylococcus aureus (GC 4541) ([1]; broth dilution, strain GC 4541) | MIC Staphylococcus aureus (GC 4542) ([1]; broth dilution, strain GC 4542) | MIC Staphylococcus aureus (GC 4544) ([1]; broth dilution, strain GC 4544) | MIC Staphylococcus haemolyticus (GC 4546) ([1]; broth dilution, strain GC 4546) | MIC Coagulase Negative Staphylococcus (GC 4547) ([1]; broth dilution, strain GC 4547) | MIC Coagulase Negative Staphylococcus (GC 4548) ([1]; broth dilution, strain GC 4548) | MIC Enterococcus faecium (GC 4557) ([2]; Enterococcus faecium (GC 4557)) | MIC Enterococcus faecium (GC 4557) ([2]; broth dilution, strain GC 4557)
2 µg/mL: MIC Staphylococcus aureus (GC 3051) [1, 12] | MIC Staphylococcus aureus (GC 4545) [1, 17] | MIC Staphylococcus aureus-SMITH (GC 4543) [1, 18] | MIC Staphylococcus aureus (GC 3051) ([1]; broth dilution, strain GC 3051) | MIC Staphylococcus aureus-SMITH (GC 4543) ([1]; broth dilution, strain GC 4543) | MIC Staphylococcus aureus (GC 4545) ([1]; broth dilution, strain GC 4545) | MIC Escherichia coli (GC 4560) [4]
8 µg/mL: MIC Coagulase Negative Staphylococcus (GC 4551) [1, 8] | MIC Coagulase Negative Staphylococcus (GC 4551) ([1]; broth dilution, strain GC 4551)
32 µg/mL: MIC Enterococcus faecalis (GC 3059) [2, 24] | MIC Enterococcus faecalis (GC 4552) [2, 25] | MIC Enterococcus faecalis (GC 4554) [2, 27] | MIC Enterococcus faecalis (GC 3059) ([2]; broth dilution, strain GC 3059) | MIC Enterococcus faecalis (GC 4552) ([2]; broth dilution, strain GC 4552) | MIC Enterococcus faecalis (GC 4554) ([2]; broth dilution, strain GC 4554)
1 µg/mL: MIC Coagulase Negative Staphylococcus (GC 4549) [1, 7] | MIC Coagulase Negative Staphylococcus (GC 6257) [1, 9] | MIC Coagulase Negative Staphylococcus (GC 4549) ([1]; broth dilution, strain GC 4549) | MIC Coagulase Negative Staphylococcus (GC 6257) ([1]; broth dilution, strain GC 6257) | MIC Streptococcus agalactiae (GC 4564) [3, 30] | MIC Streptococcus pyogenes (GC 4563) [3, 32] | MIC Streptococcus pyogenes (GC 4563) ([3]; broth dilution, strain GC 4563) | MIC Streptococcus agalactiae (GC 4564) ([3]; broth dilution, strain GC 4564)
>64 µg/mL: MIC Escherichia coli (ATCC 25922) [4] | MIC Escherichia coli (GC 4559) [4]
16 µg/mL: MIC Enterococcus avium (GC 4558) ([2]; Enterococcus avium (GC 4558)) | MIC Enterococcus faecalis (ATCC 29212) [2, 21] | MIC Enterococcus faecalis (GC 2242) [2, 22] | MIC Enterococcus faecalis (GC 2691) [2, 23] | MIC Enterococcus faecalis (GC 4553) [2, 26] | MIC Enterococcus faecalis (GC 6189) [2, 28] | MIC Enterococcus faecium (GC 2243) ([2]; Enterococcus faecium (GC 2243)) | MIC Enterococcus faecium (GC 4556) ([2]; Enterococcus faecium (GC 4556)) | MIC Enterococcus faecalis (ATCC 29212) [2, 29] | MIC Enterococcus faecalis (GC 2242) ([2]; broth dilution, strain GC 2242) | MIC Enterococcus faecium (GC 2243) ([2]; broth dilution, strain GC 2243) | MIC Enterococcus faecalis (GC 2691) ([2]; broth dilution, strain GC 2691) | MIC Enterococcus faecalis (GC 4553) ([2]; broth dilution, strain GC 4553) | MIC Enterococcus faecium (GC 4556) ([2]; broth dilution, strain GC 4556) | MIC Enterococcus avium (GC 4558) ([2]; broth dilution, strain GC 4558) | MIC Enterococcus faecalis (GC 6189) ([2]; broth dilution, strain GC 6189)
0.5 µg/mL: MIC Streptococcus pneumoniae (ATCC 6301) ([3]; Streptococcus pneumoniae (ATCC 6301)) | MIC Streptococcus pneumoniae (GC 4565) [3, 31] | MIC Streptococcus pneumoniae (ATCC 6301) ([3]; broth dilution, strain ATCC 6301) | MIC Streptococcus pneumoniae (GC 4565) ([3]; broth dilution, strain GC 4565)
